Like-named read-outs stand apart in the source and are kept apart here.
Tests used:
Assay in all cases: cell-based
hNav1.7 = hNav1.7 (Homo sapiens, UniProt Q15858); details: for IC50: read-out: IC50 (μM) Nav1.7
hNav1.5 = hNav1.5 (Homo sapiens, UniProt Q14524); details: read-out: IC50 (μM) Nav1.5
hNav1.4 = hNav1.4 (Homo sapiens, UniProt P35499); format: cell-based; details: for IC50: read-out: IC50 (μM) Nav1.4; for Nav1.4/Nav1.7: ratio of IonWorks Quattro IC50 values
hNav1.3 = hNav1.3 (Homo sapiens, UniProt Q9NY46); details: read-out: IC50 (μM) Nav1.3
hNav1.3, sequence (Q9NY46 whole entry): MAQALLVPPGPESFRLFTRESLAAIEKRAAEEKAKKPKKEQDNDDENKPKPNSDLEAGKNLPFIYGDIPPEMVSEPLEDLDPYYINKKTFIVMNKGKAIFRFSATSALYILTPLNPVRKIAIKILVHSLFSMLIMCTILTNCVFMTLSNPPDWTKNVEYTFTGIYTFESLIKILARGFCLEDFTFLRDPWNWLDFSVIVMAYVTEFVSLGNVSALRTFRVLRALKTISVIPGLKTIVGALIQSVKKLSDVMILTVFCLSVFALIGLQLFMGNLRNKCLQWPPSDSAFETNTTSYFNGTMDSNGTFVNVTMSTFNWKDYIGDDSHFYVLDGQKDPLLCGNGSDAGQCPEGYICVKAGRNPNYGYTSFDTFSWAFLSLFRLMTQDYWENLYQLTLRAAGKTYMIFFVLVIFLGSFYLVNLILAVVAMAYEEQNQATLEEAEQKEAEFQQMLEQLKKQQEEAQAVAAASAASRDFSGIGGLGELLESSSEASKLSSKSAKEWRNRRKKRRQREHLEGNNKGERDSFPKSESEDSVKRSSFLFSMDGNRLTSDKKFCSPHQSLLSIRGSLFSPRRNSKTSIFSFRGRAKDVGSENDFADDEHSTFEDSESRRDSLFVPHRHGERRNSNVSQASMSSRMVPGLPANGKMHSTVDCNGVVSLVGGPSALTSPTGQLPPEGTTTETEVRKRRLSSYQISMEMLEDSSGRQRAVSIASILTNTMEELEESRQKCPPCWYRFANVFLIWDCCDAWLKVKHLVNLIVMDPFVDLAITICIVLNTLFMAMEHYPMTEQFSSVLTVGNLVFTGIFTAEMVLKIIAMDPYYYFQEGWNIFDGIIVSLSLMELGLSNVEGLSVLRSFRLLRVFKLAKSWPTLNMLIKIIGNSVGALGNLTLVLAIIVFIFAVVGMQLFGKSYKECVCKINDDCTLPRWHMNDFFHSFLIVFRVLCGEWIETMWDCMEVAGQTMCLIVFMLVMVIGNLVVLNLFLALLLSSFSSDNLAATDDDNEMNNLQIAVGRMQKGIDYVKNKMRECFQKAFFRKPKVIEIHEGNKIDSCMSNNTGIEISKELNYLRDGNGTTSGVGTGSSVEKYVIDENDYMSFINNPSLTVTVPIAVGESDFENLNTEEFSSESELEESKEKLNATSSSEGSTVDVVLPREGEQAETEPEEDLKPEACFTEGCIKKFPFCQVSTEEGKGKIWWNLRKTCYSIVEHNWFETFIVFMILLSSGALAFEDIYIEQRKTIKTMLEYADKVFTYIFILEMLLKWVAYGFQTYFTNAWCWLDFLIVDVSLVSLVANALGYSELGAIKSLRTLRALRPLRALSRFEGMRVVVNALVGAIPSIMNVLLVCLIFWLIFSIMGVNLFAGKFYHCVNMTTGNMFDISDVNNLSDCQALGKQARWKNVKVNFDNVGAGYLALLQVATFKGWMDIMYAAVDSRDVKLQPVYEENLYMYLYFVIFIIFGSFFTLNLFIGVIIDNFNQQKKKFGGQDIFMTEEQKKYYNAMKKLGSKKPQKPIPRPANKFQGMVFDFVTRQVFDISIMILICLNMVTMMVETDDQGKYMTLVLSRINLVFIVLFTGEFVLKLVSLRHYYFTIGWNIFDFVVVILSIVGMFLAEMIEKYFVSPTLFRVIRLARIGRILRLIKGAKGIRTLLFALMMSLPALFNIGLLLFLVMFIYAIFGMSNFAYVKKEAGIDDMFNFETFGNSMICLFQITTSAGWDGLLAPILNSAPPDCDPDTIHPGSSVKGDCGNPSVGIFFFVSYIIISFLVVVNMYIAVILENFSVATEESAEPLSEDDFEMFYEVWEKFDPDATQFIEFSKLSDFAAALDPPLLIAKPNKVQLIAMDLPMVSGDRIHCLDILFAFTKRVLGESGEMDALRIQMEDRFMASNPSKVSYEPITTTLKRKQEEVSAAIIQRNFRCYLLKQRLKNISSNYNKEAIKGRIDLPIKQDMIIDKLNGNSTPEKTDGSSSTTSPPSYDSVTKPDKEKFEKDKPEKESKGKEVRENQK

hNav1.7, sequence (Q15858 whole entry): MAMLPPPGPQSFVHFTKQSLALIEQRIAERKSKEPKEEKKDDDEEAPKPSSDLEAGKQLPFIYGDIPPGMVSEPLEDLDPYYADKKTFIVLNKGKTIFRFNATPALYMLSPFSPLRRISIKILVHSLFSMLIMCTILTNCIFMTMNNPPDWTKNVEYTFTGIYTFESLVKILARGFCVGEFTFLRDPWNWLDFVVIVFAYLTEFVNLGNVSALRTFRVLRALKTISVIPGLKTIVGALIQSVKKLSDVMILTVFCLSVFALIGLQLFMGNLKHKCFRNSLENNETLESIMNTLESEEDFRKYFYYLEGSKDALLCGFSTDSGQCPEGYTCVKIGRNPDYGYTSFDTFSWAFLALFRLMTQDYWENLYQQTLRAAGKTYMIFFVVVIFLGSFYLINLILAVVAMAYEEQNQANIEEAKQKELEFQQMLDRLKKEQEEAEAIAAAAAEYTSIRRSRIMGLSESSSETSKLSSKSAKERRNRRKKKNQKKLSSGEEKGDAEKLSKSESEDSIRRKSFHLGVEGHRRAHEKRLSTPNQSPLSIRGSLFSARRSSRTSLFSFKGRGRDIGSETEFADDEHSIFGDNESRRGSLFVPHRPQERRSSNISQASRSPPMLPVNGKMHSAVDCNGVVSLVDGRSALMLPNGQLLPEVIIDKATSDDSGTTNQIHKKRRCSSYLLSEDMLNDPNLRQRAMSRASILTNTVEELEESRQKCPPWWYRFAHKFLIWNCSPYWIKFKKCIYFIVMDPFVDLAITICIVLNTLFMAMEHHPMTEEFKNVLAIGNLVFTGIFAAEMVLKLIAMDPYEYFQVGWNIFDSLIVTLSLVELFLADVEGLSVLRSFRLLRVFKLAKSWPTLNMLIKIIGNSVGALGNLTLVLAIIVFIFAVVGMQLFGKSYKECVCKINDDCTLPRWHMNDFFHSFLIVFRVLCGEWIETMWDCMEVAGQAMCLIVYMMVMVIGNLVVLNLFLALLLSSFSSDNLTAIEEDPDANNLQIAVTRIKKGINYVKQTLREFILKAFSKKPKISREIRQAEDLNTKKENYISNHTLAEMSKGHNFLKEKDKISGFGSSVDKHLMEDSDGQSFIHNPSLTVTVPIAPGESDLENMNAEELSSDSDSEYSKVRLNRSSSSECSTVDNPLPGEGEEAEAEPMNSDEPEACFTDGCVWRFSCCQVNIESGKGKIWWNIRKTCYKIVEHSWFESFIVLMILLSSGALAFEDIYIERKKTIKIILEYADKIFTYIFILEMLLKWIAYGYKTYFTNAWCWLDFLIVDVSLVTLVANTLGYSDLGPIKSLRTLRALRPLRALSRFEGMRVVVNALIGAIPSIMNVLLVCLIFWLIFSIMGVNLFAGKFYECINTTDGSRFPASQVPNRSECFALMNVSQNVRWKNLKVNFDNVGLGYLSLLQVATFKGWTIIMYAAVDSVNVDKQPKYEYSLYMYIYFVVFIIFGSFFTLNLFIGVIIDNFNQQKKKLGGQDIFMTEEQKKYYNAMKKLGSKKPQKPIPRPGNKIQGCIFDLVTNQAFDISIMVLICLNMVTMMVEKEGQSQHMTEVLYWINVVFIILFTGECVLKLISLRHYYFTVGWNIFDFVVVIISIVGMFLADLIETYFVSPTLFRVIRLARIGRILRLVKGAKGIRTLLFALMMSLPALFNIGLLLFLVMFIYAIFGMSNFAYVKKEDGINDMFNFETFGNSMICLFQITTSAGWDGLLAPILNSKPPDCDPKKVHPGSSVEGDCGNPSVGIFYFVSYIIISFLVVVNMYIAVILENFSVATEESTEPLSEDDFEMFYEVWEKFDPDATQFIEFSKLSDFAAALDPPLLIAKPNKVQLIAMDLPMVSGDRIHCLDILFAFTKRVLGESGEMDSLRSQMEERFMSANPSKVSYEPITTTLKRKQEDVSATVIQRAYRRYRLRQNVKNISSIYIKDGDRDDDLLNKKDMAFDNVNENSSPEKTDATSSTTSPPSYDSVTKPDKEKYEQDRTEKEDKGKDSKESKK

| Structure (SMILES) | Nav1.4/Nav1.7 (hNav1.7; ratio of IonWorks Quattro IC50 values, Nav1.4 over Nav1.7) | IC50 (hNav1.7) [µM] | IC50 (hNav1.5) [µM] | IC50 (hNav1.4) [µM] | IC50 (hNav1.3) [µM] | IC50 (hNav1.5; IonWorks Quattro, Table 6) [µM] | IC50 (hNav1.4; IonWorks Quattro, Table 6) [µM] | Nav1.4/Nav1.7 (hNav1.4; Table 6) | IC50 (hNav1.3; IonWorks Quattro, Table 6) [µM] |
| --- | --- | --- | --- | --- | --- | --- | --- | --- | --- |
| CC[C@@H]1NC(=O)[C@H](CC(C)C)NC(=O)CNC(=O)[C@H](CCC(=O)O)NC(=O)[C@@H]2CSSC[C@H](NC(=O)[C@@H](N)Cc3ccc(O)cc3)C(=O)N[C@@H](CCC(N)=O)C(=O)N[C@@H](CCCCN)C(=O)N[C@@H](Cc3c[nH]c4ccccc34)C(=O)N[C@@H](CCSC)C(=O)N[C@@H](Cc3c[nH]c4ccccc34)C(=O)N[C@@H]([C@@H](C)O)C(=O)N[C@H]3CSSC[C@H](NC1=O)C(=O)N[C@@H](CCCCN)C(=O)N[C@@H](CC(C)C)C(=O)N[C@@H](Cc1c[nH]c4ccccc14)C(=O)N[C@H](C(=O)N[C@@H](CCCNC(=N)N)C(=O)N[C@@H](CCCCN)C(=O)N[C@H](C(=O)N[C@H](C(N)=O)[C@@H](C)CC)[C@@H](C)CC)CSSC[C@H](NC(=O)[C@H](C)NC(=O)[C@H](CCCNC(=N)N)NC(=O)[C@H](CCCCN)NC(=O)[C@H](CO)NC(=O)[C@H](CC(=O)O)NC3=O)C(=O)N2 [compound 117] | 19 | 0.05 | 10.6 | 0.9 | 0.97 | – | – | – | – |
| CC[C@H](C)[C@H](NC(=O)[C@@H](NC(=O)[C@H](CCCCN)NC(=O)[C@H](CCCNC(=N)N)NC(=O)[C@@H]1CSSC[C@@H]2NC(=O)[C@H](C)NC(=O)[C@H](CCCNC(=N)N)NC(=O)[C@H](CCCCN)NC(=O)[C@H](CO)NC(=O)[C@H](CC(=O)O)NC(=O)[C@@H]3CSSC[C@H](NC(=O)[C@H](CCCNC(=N)N)NC(=O)[C@H](CC(C)C)NC(=O)CNC(=O)[C@H](CCC(=O)O)NC(=O)[C@H](CSSC[C@H](NC(=O)[C@@H](N)Cc4cccc5ccccc45)C(=O)N[C@@H](CCC(N)=O)C(=O)N[C@@H](CCCCN)C(=O)N[C@@H](Cc4c[nH]c5ccccc45)C(=O)N[C@@H](CCSC)C(=O)N[C@@H](Cc4c[nH]c5ccccc45)C(=O)N[C@@H]([C@@H](C)O)C(=O)N3)NC2=O)C(=O)N[C@@H](CCCCN)C(=O)N[C@@H](CC(C)C)C(=O)N[C@@H](Cc2c[nH]c3ccccc23)C(=O)N1)[C@@H](C)CC)C(N)=O [compound 25] | – | 0.008 | – | – | – | 2.3 | 0.09 | 10 | 0.07 |
| CC[C@H](C)[C@H](NC(=O)[C@@H](NC(=O)[C@H](CCCCN)NC(=O)[C@H](CCCNC(=N)N)NC(=O)[C@@H]1CSSC[C@@H]2NC(=O)[C@H](C)NC(=O)[C@H](C)NC(=O)[C@H](CCCCN)NC(=O)[C@H](CO)NC(=O)[C@H](CC(=O)O)NC(=O)[C@@H]3CSSC[C@H](NC(=O)[C@H](CCCNC(=N)N)NC(=O)[C@H](CC(C)C)NC(=O)CNC(=O)[C@H](CCC(=O)O)NC(=O)[C@H](CSSC[C@H](NC(=O)[C@@H](N)Cc4ccc(O)cc4)C(=O)N[C@@H](CCC(N)=O)C(=O)N[C@@H](CCCCN)C(=O)N[C@@H](Cc4c[nH]c5ccccc45)C(=O)N[C@@H](CCSC)C(=O)N[C@@H](Cc4c[nH]c5ccccc45)C(=O)N[C@@H]([C@@H](C)O)C(=O)N3)NC2=O)C(=O)N[C@@H](CCCCN)C(=O)N[C@@H](CC(C)C)C(=O)N[C@@H](Cc2c[nH]c3ccccc23)C(=O)N1)[C@@H](C)CC)C(N)=O [compound 13] | – | 0.079 | – | – | – | > 5 | 0.57 | 7 | 0.3 |
| CC[C@H](C)[C@H](NC(=O)[C@H](CCCCN)NC(=O)[C@H](CCCNC(=N)N)NC(=O)[C@@H]1CSSC[C@@H]2NC(=O)[C@H](C)NC(=O)[C@H](CCCNC(=N)N)NC(=O)[C@H](CCCCN)NC(=O)[C@H](CO)NC(=O)[C@H](CC(=O)O)NC(=O)[C@@H]3CSSC[C@H](NC(=O)[C@H](CCCNC(=N)N)NC(=O)[C@H](CC(C)C)NC(=O)CNC(=O)[C@H](CCC(=O)O)NC(=O)[C@H](CSSC[C@H](NC(=O)[C@@H](N)Cc4ccc(O)cc4)C(=O)N[C@@H](CCC(N)=O)C(=O)N[C@@H](CCCCN)C(=O)N[C@@H](Cc4c[nH]c5ccccc45)C(=O)N[C@@H](CCSC)C(=O)N[C@@H](Cc4c[nH]c5ccccc45)C(=O)N[C@@H]([C@@H](C)O)C(=O)N3)NC2=O)C(=O)N[C@@H](CCCCN)C(=O)N[C@@H](CC(C)C)C(=O)N[C@@H](Cc2c[nH]c3ccccc23)C(=O)N1)C(=O)N[C@@H](CCCCN)C(N)=O [compound 89] | – | 0.11 | – | – | – | > 5 | 1.3 | 11 | 2.4 |
| CC[C@H](C)[C@H](NC(=O)[C@@H](NC(=O)[C@H](CCCCN)NC(=O)[C@H](CCCNC(=N)N)NC(=O)[C@@H]1CSSC[C@@H]2NC(=O)[C@H](C)NC(=O)[C@H](CCCNC(=N)N)NC(=O)[C@H](CCCCN)NC(=O)[C@H](CO)NC(=O)[C@H](CC(=O)O)NC(=O)[C@@H]3CSSC[C@H](NC(=O)[C@H](CCCNC(=N)N)NC(=O)[C@H](CC(C)C)NC(=O)CNC(=O)[C@H](CCC(=O)O)NC(=O)[C@H](CSSC[C@H](NC(=O)[C@@H](N)Cc4ccc(O)cc4)C(=O)N[C@@H](CCC(N)=O)C(=O)N[C@@H](CCCCN)C(=O)N[C@@H](Cc4c[nH]c5ccccc45)C(=O)N[C@@H](CCSC)C(=O)N[C@@H](C)C(=O)N[C@@H]([C@@H](C)O)C(=O)N3)NC2=O)C(=O)N[C@@H](CCCCN)C(=O)N[C@@H](CC(C)C)C(=O)N[C@@H](Cc2c[nH]c3ccccc23)C(=O)N1)[C@@H](C)CC)C(N)=O [compound 8] | – | 0.15 | – | – | – | > 5 | 0.69 | 5 | 0.94 |
| CC[C@H](C)[C@H](NC(=O)[C@@H](NC(=O)[C@H](CCCCN)NC(=O)[C@H](CCCNC(=N)N)NC(=O)[C@@H]1CSSC[C@@H]2NC(=O)[C@H](C)NC(=O)[C@H](CCCNC(=N)N)NC(=O)[C@H](CCCCN)NC(=O)[C@H](CO)NC(=O)[C@H](CC(=O)O)NC(=O)[C@@H]3CSSC[C@H](NC(=O)[C@H](CCCNC(=N)N)NC(=O)[C@H](CC(C)C)NC(=O)CNC(=O)[C@H](CCC(=O)O)NC(=O)[C@H](CSSC[C@H](NC(=O)[C@@H](N)CCCNC(=N)N)C(=O)N[C@@H](CCC(N)=O)C(=O)N[C@@H](CCCCN)C(=O)N[C@@H](Cc4c[nH]c5ccccc45)C(=O)N[C@@H](CCSC)C(=O)N[C@@H](Cc4c[nH]c5ccccc45)C(=O)N[C@@H]([C@@H](C)O)C(=O)N3)NC2=O)C(=O)N[C@@H](CCCCN)C(=O)N[C@@H](CC(C)C)C(=O)N[C@@H](Cc2c[nH]c3ccccc23)C(=O)N1)[C@@H](C)CC)C(N)=O [compound 90] | – | 0.005 | – | – | – | 1.8 | 0.12 | 24 | 0.04 |
| CC[C@H](C)[C@H](NC(=O)[C@@H](NC(=O)[C@H](CCCCN)NC(=O)[C@H](CCCNC(=N)N)NC(=O)[C@@H]1CSSC[C@@H]2NC(=O)[C@H](C)NC(=O)[C@H](CCCNC(=N)N)NC(=O)[C@H](CCCCN)NC(=O)[C@H](CO)NC(=O)[C@H](CC(=O)O)NC(=O)[C@@H]3CSSC[C@H](NC(=O)[C@H](CCCNC(=N)N)NC(=O)[C@H](CC(C)C)NC(=O)CNC(=O)[C@H](CCC(=O)O)NC(=O)[C@H](CSSC[C@H](NC(=O)[C@@H](N)Cc4ccc(O)cc4)C(=O)N[C@@H](CCC(N)=O)C(=O)N[C@@H](CCCCN)C(=O)N[C@@H](Cc4c[nH]c5ccccc45)C(=O)N[C@@H](CCSC)C(=O)N[C@@H](CCCNC(=N)N)C(=O)N[C@@H]([C@@H](C)O)C(=O)N3)NC2=O)C(=O)N[C@@H](CCCCN)C(=O)N[C@@H](CC(C)C)C(=O)N[C@@H](Cc2c[nH]c3ccccc23)C(=O)N1)[C@@H](C)CC)C(N)=O [compound 95] | – | 0.053 | – | – | – | > 5 | 0.4 | 8 | 0.08 |
| CC[C@H](C)[C@H](NC(=O)[C@@H](NC(=O)[C@H](CCCNC(=N)N)NC(=O)[C@H](CCCNC(=N)N)NC(=O)[C@@H]1CSSC[C@@H]2NC(=O)[C@H](C)NC(=O)[C@H](CCCNC(=N)N)NC(=O)[C@H](CCCCN)NC(=O)[C@H](CO)NC(=O)[C@H](CC(=O)O)NC(=O)[C@@H]3CSSC[C@H](NC(=O)[C@H](CCCNC(=N)N)NC(=O)[C@H](CC(C)C)NC(=O)CNC(=O)[C@H](CCC(=O)O)NC(=O)[C@H](CSSC[C@H](NC(=O)[C@@H](N)Cc4ccc(O)cc4)C(=O)N[C@@H](CCC(N)=O)C(=O)N[C@@H](CCCCN)C(=O)N[C@@H](Cc4c[nH]c5ccccc45)C(=O)N[C@@H](CCSC)C(=O)N[C@@H](Cc4c[nH]c5ccccc45)C(=O)N[C@@H]([C@@H](C)O)C(=O)N3)NC2=O)C(=O)N[C@@H](CCCCN)C(=O)N[C@@H](CC(C)C)C(=O)N[C@@H](Cc2c[nH]c3ccccc23)C(=O)N1)[C@@H](C)CC)C(N)=O [compound 107] | – | 0.028 | – | – | – | > 5 | 0.23 | 8 | 0.1 |
| CC[C@H](C)[C@H](NC(=O)[C@H](C)NC(=O)[C@H](CCCCN)NC(=O)[C@H](CCCNC(=N)N)NC(=O)[C@@H]1CSSC[C@@H]2NC(=O)[C@H](C)NC(=O)[C@H](CCCNC(=N)N)NC(=O)[C@H](CCCCN)NC(=O)[C@H](CO)NC(=O)[C@H](CC(=O)O)NC(=O)[C@@H]3CSSC[C@H](NC(=O)[C@H](CCCNC(=N)N)NC(=O)[C@H](CC(C)C)NC(=O)CNC(=O)[C@H](CCC(=O)O)NC(=O)[C@H](CSSC[C@H](NC(=O)[C@@H](N)Cc4ccc(O)cc4)C(=O)N[C@@H](CCC(N)=O)C(=O)N[C@@H](CCCCN)C(=O)N[C@@H](Cc4c[nH]c5ccccc45)C(=O)N[C@@H](CCSC)C(=O)N[C@@H](Cc4c[nH]c5ccccc45)C(=O)N[C@@H]([C@@H](C)O)C(=O)N3)NC2=O)C(=O)N[C@@H](CCCCN)C(=O)N[C@@H](CC(C)C)C(=O)N[C@@H](Cc2c[nH]c3ccccc23)C(=O)N1)C(N)=O [compound 23] | – | 0.03 | – | – | – | > 5 | 0.29 | 10 | 0.25 |
